Assay results published in patent US20230338572A1, “ANTI-TM4SF1 ANTIBODY-DRUG CONJUGATES COMPRISING CLEAVABLE LINKERS AND METHODS OF USING SAME” (Angiex, Inc., priority 2020, published 2023).

Assays:
HUVEC = assay: In vitro cell proliferation inhibition assay (Example 10); assay type: cell-based, human; settings: free drug/linker payload, 5 days
Protocol: (§1) The effects of antibody drug-conjugates (drug to antibody ratio (DAR) varying from 0.9 to 3.5) containing a drug (maytansine or camptothecin) assessed in cultured mouse (MS1) and human (HUVEC, and MiaPaCa2) cells. The structures of the ADC tested are listed in Table 8 and shown in FIG. 19 (ADC) and FIG. 26 (ADC2, ADC3, and ADC4). Both Exemplary Antibody 1 and Exemplary Antibody 2 contain human IgG1 constant region with YTEC mutation. Cells were incubated for 5 days with the antibody drug conjugate before assessing cell viability on day 5.
(§2) In this experiment, different payloads were respectively assessed in cultured mouse (MS1) and human (MiaPaCa2 and HUVEC) cells. Cells were treated incubated for 5 days with the antibody drug conjugate before assessing cell viability on day 5.

MS1 = assay: as above; assay type: cell-based, mouse; settings: free drug/linker payload, 5 days
Protocol: as §1, §2

[1] = cited from earlier work
MiaPaCa2 = assay: In vitro cell proliferation inhibition assay (Example 10); assay type: cell-based, human; settings: free drug/linker payload; 5 days
Protocol: as §1, §2

[2] = target: T1, human TM4SF1 (transmembrane-4 L six family member-1), on HUVEC cells (UniProt P30408 1-202); assay: flow cytometry, HUVEC
T1 chain: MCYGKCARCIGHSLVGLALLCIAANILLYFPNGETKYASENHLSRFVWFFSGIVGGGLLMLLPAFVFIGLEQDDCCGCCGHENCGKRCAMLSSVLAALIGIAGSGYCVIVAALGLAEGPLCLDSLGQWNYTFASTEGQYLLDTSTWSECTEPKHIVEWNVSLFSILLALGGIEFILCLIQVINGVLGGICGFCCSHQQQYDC

Question: What does the source list for CC[C@@]1(O)C(=O)OCc2c1cc1n(c2=O)Cc2cc3ccccc3nc2-1 [payload 3, Camptothecin]?
Answer: EC50 (HUVEC; Homo sapiens, HUVEC, 120 h): 1.89 nM; EC50 (MS1; Mus musculus, MS-1, 120 h): 34.3 nM

Question: Which results are given for Combretastatin [CA4P]?
Answer: Overall survival ([1]; Phase II FALCON study, reduced from 16.2): 13.6 months; Patients who experienced heart attacks while being treated ([1]; human, in vivo): seven

Question: With “Maleimide-ethylamino-nosyl-Ahx-Maytansine [payload 1]” as the molecule, how does the EC50 (HUVEC) read?
Answer: 0.114 nM

Question: And the EC50 (MiaPaCa2)?
Answer: 0.0395 nM

Question: Which EC50 (HUVEC) does the source give for “Maleimide-tetrazine-PEG3-methyl-EDA-nosyl-Camptothecin [payload 2]” here?
Answer: 1450 nM

Question: And the EC50 (MS1)?
Answer: 6710 nM

B1: AGX-A07 "YTEC" variant (anti-TM4SF1 antibody AGX-A07 with Fc mutations N297C, M252Y, S254T and T256E), naked antibody (antibody, V domains shown)
VH: QIQLVQSGPELKKPGETVKISCKASGYTFTNYGVKWVKQAPGKDLKWMGWINTYTGNPIYAADFKGRFAFSLETSASTAFLQINNLKNEDTATYFCVRFQYGDYRYFDVWGAGTTVTVSS
VL: QIILSQSPAILSASPGEKVTMTCRANSGISFINWYQQKPGSSPKPWIYGTANLASGVPARFGGSGSGTSYSLTISRVEAEDAATYYCQQWSSNPLTFGAGTKLELR
Question: With B1 as the molecule, how does the EC50 [2] read?
Answer: 1.75 nM
